SMILES strings stand for the structures.

We go through 22 molecules from paper PMC7037052, “Predicting the Blood-Brain Barrier Permeability of New Drug-Like Compounds via HPLC with Various Stationary Phases” (Molecules, 2020).

What all share (format): physicochemical
A short description of data set [1]: RP-HPLC retention on Purosphere RP-18e (ODS) column, buffer pH 7.4-acetonitrile. As to conditions: for log kw, ODS: extrapolated to buffer pH 7.4 as mobile phase, 25 °C; for s ODS: slope of Soczewiński-Wachtmeister equation, acetonitrile φ 0.3–0.6. On the procedure:
(§1) Retention parameters reported as the log k values were calculated by the expression:(1) logk=log(tR−t0)/t0 where tR and t0 are the retention times of the solute and a non-retained compound (citric acid), respectively. They were used to calculate the log kw values, i.e., logarithms of retention parameter in the buffer as the mobile phase. For this purpose the Soczewiński-Wachtmeister’s equation was used:log k = log kw − sφ(2) where φ is the volume fraction of organic modifier in the mobile phase; k and kw are retention parameters corresponding to mixed effluent and buffer as the mobile phase, respectively. The slope s is characteristic of a given solute and chromatographic system. Strong linear relationships between log k and φ values were found for all the compounds in the range of effluent composition examined (R^2 > 0.9). The log kw values determined for the ODS (log kw, ODS), IAM (log kw, IAM) and Cholester (log kw, Cholester) columns were intercorrelated and the following linear relationships with a very good statistical quality were obtained:log kw, ODS = 0.691(± 0.094) + 0.982(± 0.044) log kw, IAM(3) SD = 0.257; R^2 = 0.8880; N = 65 log kw, ODS = 0.911(± 0.062) + 0.765(± 0.025) log kw, Cholester(4) SD = 0.192; R^2 = 0.9371; N = 65 log kw, IAM = 0.356(± 0.073) + 0.721(± 0.029) log kw, Cholester(5) SD = 0.224; R^2 = 0.9068; N = 65
(§2) Shimadzu Vp (Shimadzu, Izabelin, Poland) liquid chromatographic system equipped with LC 10AT pump, SPD 10A UV-Vis detector, SCL 10A system controller, CTO-10 AS chromatographic oven and Rheodyne injector valve with a 20 µL loop was applied in HPLC measurements. Three stationary phases were employed: • Purosphere RP-18e (ODS), 125 × 4 mm i.d., 5 µm (Merck); • IAM.PC.DD2 100 × 4.6 mm i.d., 10 µm (Regis Chemicals Company, Morton Grove, IL, USA); • Cosmosil Cholester, 75 × 2 mm i.d., 2.5 µm (Genore, Warsaw, Poland).
(§3) As mobile phases buffer-acetonitrile mixtures were used. The buffer was prepared from 0.01 mol L^−1 solutions of Na2HPO4 and citric acid and the pH 7.4 value was fixed before mixing with organic modifier. With the ODS column acetonitrile concentration in the effluent, expressed as a volume fraction (φ, v/v), was changed in the range 0.3–0.6, with the constant step of 0.1. The flow rate was 1 mL min^−1. With the IAM column acetonitrile concentration was changed in the range 0.2–0.5, also with the constant step of 0.1 and the flow rate was 1.3 mL min^−1. With the Cosmosil Cholester column acetonitrile concentration was changed in the range 0.4–0.6, with the constant step of 0.05 and the flow rate was 0.4 mL min^−1. Samples of test compounds were dissolved in acetonitrile—c.a. 0.005 mg mL^−1. […] They were detected under UV light at 210 and 254 nm. All measurements were carried out at 25 °C. The dead time values were measured from non-retained compound (citric acid) peaks. All reported log kw values are the average of at least three independent measurements. The extrapolated retention coefficients (logs kw) achieved by HPLC on ODS, IAM and Cholester stationary phases were used for modelling the log BB permeation of 65 drug-like compounds employed as a whole test set (Table 1).

Data set [2] is described as follows: RP-HPLC retention on IAM.PC.DD2 (immobilized artificial membrane) column, buffer pH 7.4-acetonitrile. As to conditions: for log kw, IAM: extrapolated to buffer pH 7.4 as mobile phase, 25 °C; for s IAM: slope of Soczewiński-Wachtmeister equation, acetonitrile φ 0.2–0.5. Here is the method:
as §1, §2, §3

Data set [3] can be described thus: RP-HPLC retention on Cosmosil Cholester column, buffer pH 7.4-acetonitrile. As to conditions: for log kw, Cholester: extrapolated to buffer pH 7.4 as mobile phase, 25 °C; for s Cholester: slope of Soczewiński-Wachtmeister equation, acetonitrile φ 0.4–0.6. On the procedure:
as §1, §2, §3

Turning to `O=c1c(Cc2ccc(Cl)cc2)nnc2n1CCN2c1ccccc1` [Compound 44], in data set [1], the “log kw, ODS” value is on record as 3.60 and the “s ODS” value is recorded as 5.62. In data set [2], the “log kw, IAM” value was 2.39 and the “s IAM” value is recorded as 4.81. In data set [3], the “log kw, Cholester” value is recorded as 3.01 and the “s Cholester” value amounted to 4.70.

Take `Cc1ccc(N2CCn3c2nnc(Cc2cccc(Cl)c2)c3=O)cc1` [Compound 49]: in data set [1], the “log kw, ODS” value is 3.31 and the “s ODS” value amounted to 5.41. Besides, in data set [2], the “log kw, IAM” value is 2.78 and the “s IAM” value came to 5.50. For the same molecule, in data set [3], the “log kw, Cholester” value was 3.40 and the “s Cholester” value was found to be 5.33.

Consider `CCc1nnc2n(c1=O)CCN2c1ccccc1Cl` [Compound 3], for which, in data set [1], the “log kw, ODS” value is recorded as 1.22 and the “s ODS” value is listed as 3.02. In data set [2], the “log kw, IAM” value is given as 0.80 and the “s IAM” value is on record as 2.51. In addition, in data set [3], the “log kw, Cholester” value was 0.46 and the “s Cholester” value is 1.70.

As to `Cc1ccc(N2CCn3c2nnc(Cc2ccccc2Cl)c3=O)cc1` [Compound 48], in data set [1], the “log kw, ODS” value was 3.12 and the “s ODS” value is 5.11. In data set [2], the “log kw, IAM” value is 2.65 and the “s IAM” value was found to be 5.21. Moreover, in data set [3], the “log kw, Cholester” value is 3.24 and the “s Cholester” value was determined as 4.90.

Turning to `O=c1c(-c2ccco2)nnc2n1CCN2c1ccc(Cl)cc1` [Compound 26], in data set [1], the “log kw, ODS” value is 2.65 and the “s ODS” value is recorded as 4.59. For the same molecule, in data set [2], the “log kw, IAM” value is on record as 2.02 and the “s IAM” value is recorded as 4.44. Besides, in data set [3], the “log kw, Cholester” value is 2.29 and the “s Cholester” value is reported as 4.15.

Turning to `CCOc1ccc(N2CCn3c2nnc(Cc2ccccc2Cl)c3=O)cc1` [Compound 53], in data set [1], the “log kw, ODS” value is on record as 2.93 and the “s ODS” value is on record as 5.02. Further, in data set [2], the “log kw, IAM” value is on record as 2.51 and the “s IAM” value is on record as 5.17. For the same molecule, in data set [3], the “log kw, Cholester” value is recorded as 3.21 and the “s Cholester” value is 5.15.

Take `O=c1c(CCc2ccccc2)nnc2n1CCN2c1ccccc1` [Compound 61]: in data set [1], the “log kw, ODS” value was 2.80 and the “s ODS” value is listed as 4.92. For the same molecule, in data set [2], the “log kw, IAM” value is recorded as 2.07 and the “s IAM” value is on record as 4.45. In data set [3], the “log kw, Cholester” value is on record as 2.33 and the “s Cholester” value is on record as 4.02.

Turning to `Cc1ccc(N2CCn3c2nnc(Cc2ccccc2)c3=O)cc1` [Compound 45], in data set [1], the “log kw, ODS” value is recorded as 3.35 and the “s ODS” value turned out to be 5.55. In data set [2], the “log kw, IAM” value is 2.15 and the “s IAM” value is given as 4.69. Further, in data set [3], the “log kw, Cholester” value is given as 2.74 and the “s Cholester” value was determined as 4.59.

Turning to `Cc1ccc(N2CCn3c2nnc(-c2ccco2)c3=O)cc1` [Compound 20], in data set [1], the “log kw, ODS” value is on record as 2.43 and the “s ODS” value was determined as 4.39. In data set [2], the “log kw, IAM” value is 1.69 and the “s IAM” value turned out to be 3.90. In addition, in data set [3], the “log kw, Cholester” value was 2.03 and the “s Cholester” value is 3.68.

As to `CCOC(=O)Cc1nnc2n(c1=O)CCN2c1ccc(Cl)cc1` [Compound 16], in data set [1], the “log kw, ODS” value is recorded as 2.80 and the “s ODS” value was 4.88. In data set [2], the “log kw, IAM” value is given as 2.11 and the “s IAM” value amounted to 4.51. In addition, in data set [3], the “log kw, Cholester” value was 2.37 and the “s Cholester” value amounted to 4.19.

`CCOc1ccc(N2CCn3c2nnc(Cc2ccc(C)cc2)c3=O)cc1` [Compound 52]: in data set [1], the “log kw, ODS” value is given as 3.14 and the “s ODS” value stood at 5.36. For the same molecule, in data set [2], the “log kw, IAM” value is recorded as 2.43 and the “s IAM” value is given as 5.02. Also, in data set [3], the “log kw, Cholester” value is on record as 3.07 and the “s Cholester” value amounted to 5.02.

Take `CCOC(=O)Cc1nnc2n(c1=O)CCN2c1ccc(C)cc1` [Compound 13]: in data set [1], the “log kw, ODS” value is given as 2.37 and the “s ODS” value turned out to be 4.36. Further, in data set [2], the “log kw, IAM” value is 1.70 and the “s IAM” value is 3.85. Moreover, in data set [3], the “log kw, Cholester” value was 1.92 and the “s Cholester” value is reported as 3.58.

Consider `O=c1c(-c2ccccc2)nnc2n1CCN2c1ccccc1` [Compound 29], for which, in data set [1], the “log kw, ODS” value is 2.49 and the “s ODS” value came out at 4.51. For the same molecule, in data set [2], the “log kw, IAM” value is recorded as 1.91 and the “s IAM” value came out at 4.22. In data set [3], the “log kw, Cholester” value is 2.34 and the “s Cholester” value worked out at 4.02.

Regarding `Cc1ccc(N2CCn3c2nnc(CCc2ccccc2)c3=O)cc1` [Compound 62], in data set [1], the “log kw, ODS” value is given as 3.23 and the “s ODS” value came to 5.44. Also, in data set [2], the “log kw, IAM” value is listed as 2.41 and the “s IAM” value is reported as 5.01. Further, in data set [3], the “log kw, Cholester” value is listed as 2.84 and the “s Cholester” value was found to be 4.70.

Turning to `O=c1c(-c2ccccc2)nnc2n1CCN2c1cccc(Cl)c1` [Compound 38], in data set [1], the “log kw, ODS” value is given as 3.29 and the “s ODS” value worked out at 5.70. In data set [2], the “log kw, IAM” value is 2.64 and the “s IAM” value worked out at 5.41. Further, in data set [3], the “log kw, Cholester” value is 3.20 and the “s Cholester” value is on record as 5.20.

For the molecule `O=c1c(-c2ccco2)nnc2n1CCN2c1cccc(Cl)c1` [Compound 25], in data set [1], the “log kw, ODS” value is on record as 2.75 and the “s ODS” value is recorded as 4.85. In data set [2], the “log kw, IAM” value is on record as 2.08 and the “s IAM” value is given as 4.55. In data set [3], the “log kw, Cholester” value is reported as 2.36 and the “s Cholester” value was found to be 4.05.

`O=c1c(Cc2cccc(Cl)c2)nnc2n1CCN2c1ccccc1` [Compound 43]: in data set [1], the “log kw, ODS” value was 3.59 and the “s ODS” value is on record as 5.85. In addition, in data set [2], the “log kw, IAM” value is listed as 2.48 and the “s IAM” value came out at 5.18. Besides, in data set [3], the “log kw, Cholester” value was 2.90 and the “s Cholester” value came out at 4.80.

With `O=c1c(Cc2ccccc2)nnc2n1CCN2c1ccccc1` [Compound 41], in data set [1], the “log kw, ODS” value is listed as 2.90 and the “s ODS” value amounted to 5.02. Also, in data set [2], the “log kw, IAM” value is listed as 3.26 and the “s IAM” value stood at 6.45. For the same molecule, in data set [3], the “log kw, Cholester” value is 2.23 and the “s Cholester” value is 3.75.

For the molecule `Cc1ccc(Cc2nnc3n(c2=O)CCN3c2ccc(C)cc2)cc1` [Compound 46], in data set [1], the “log kw, ODS” value was 3.04 and the “s ODS” value came out at 5.30. In data set [2], the “log kw, IAM” value is reported as 2.51 and the “s IAM” value came out at 5.22. For the same molecule, in data set [3], the “log kw, Cholester” value is reported as 3.15 and the “s Cholester” value turned out to be 5.05.

Consider `CCOc1ccc(N2CCn3c2nnc(-c2ccccc2)c3=O)cc1` [Compound 35], for which, in data set [1], the “log kw, ODS” value was 3.09 and the “s ODS” value worked out at 5.33. Moreover, in data set [2], the “log kw, IAM” value was 2.14 and the “s IAM” value was determined as 4.48. For the same molecule, in data set [3], the “log kw, Cholester” value is 2.80 and the “s Cholester” value is on record as 4.61.

`CCOc1ccc(N2CCn3c2nnc(Cc2ccc(Cl)cc2)c3=O)cc1` [Compound 55]: in data set [1], the “log kw, ODS” value is 3.32 and the “s ODS” value was found to be 5.66. In data set [2], the “log kw, IAM” value is given as 2.72 and the “s IAM” value came to 5.44. In data set [3], the “log kw, Cholester” value is 3.36 and the “s Cholester” value was determined as 5.35.

As for `O=c1c(-c2ccco2)nnc2n1CCN2c1ccc(Cl)c(Cl)c1` [Compound 27], in data set [1], the “log kw, ODS” value is 3.46 and the “s ODS” value is 5.68. Also, in data set [2], the “log kw, IAM” value was 3.23 and the “s IAM” value is 6.30. For the same molecule, in data set [3], the “log kw, Cholester” value is recorded as 2.92 and the “s Cholester” value is on record as 4.85.
